Assay results: ChEMBL document CHEMBL6177932 (J Med Chem, 2024)
Activity calls are given as the source filed them. The rule behind the calls is not given here.

Assays:
[1] = target: T1, Vitamin D3 receptor (Mus musculus) (UniProt P48281); test: Agonist activity at VDR in mouse B16-F10 cells assessed as induction of Cyp24a1 gene at 100 nM measured after 24 hrs in presence of 1,25D by RT-qPCR analysis; format: cell-based; conditions: filed as agonist
T1 sequence (whole entry): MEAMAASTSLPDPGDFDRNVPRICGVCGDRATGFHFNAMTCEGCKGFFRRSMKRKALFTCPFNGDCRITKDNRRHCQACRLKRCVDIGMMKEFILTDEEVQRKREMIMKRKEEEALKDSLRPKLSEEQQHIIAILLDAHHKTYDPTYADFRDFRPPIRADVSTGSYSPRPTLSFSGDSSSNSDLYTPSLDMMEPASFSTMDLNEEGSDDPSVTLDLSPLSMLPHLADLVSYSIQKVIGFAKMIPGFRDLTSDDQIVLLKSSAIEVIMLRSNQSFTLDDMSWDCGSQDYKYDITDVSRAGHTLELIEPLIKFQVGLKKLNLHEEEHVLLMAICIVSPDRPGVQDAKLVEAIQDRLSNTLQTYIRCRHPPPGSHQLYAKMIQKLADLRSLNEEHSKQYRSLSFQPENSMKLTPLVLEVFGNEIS

[2] = Toxicity in 4T1 cells implanted BALB/c mouse assessed as body weight loss at 80 mg/kg, ip administered daily for 18 days in presence of 1,25D; format: organism-based; conditions: in vivo, 432 h, time 18 day
[3] = Toxicity in 4T1 cells implanted BALB/c mouse assessed as stress at 80 mg/kg, ip administered daily for 18 days; format: organism-based; conditions: in vivo, 432 h, time 18 day
[4] = Toxicity in mouse B16-F10 cells implanted C57BL/6 mouse assessed as effect on body weight at 80 mg/kg, ip administered daily for 28 days; format: organism-based; conditions: in vivo, time 28 day
B16-F10 [5] = test: Antitumor activity against mouse B16-F10 cells implanted in C57BL/6 mouse assessed as reduction in tumor burden at 80 mg/kg, ip administered every second day for 18 days in presence of 1,25D; format: functional, organism-based; conditions: time 18.0 day
B16-F10 [6] = test: Antitumor activity against mouse B16-F10 cells implanted in C57BL/6 mouse assessed as reduction in tumor burden at 80 mg/kg, ip administered every second day for 18 days; format: functional, organism-based; conditions: time 18.0 day
[7] = Toxicity in 4T1 cells implanted BALB/c mouse assessed as stress at 80 mg/kg, ip administered daily for 18 days in presence of 1,25D; format: organism-based; conditions: in vivo, 432 h, time 18 day
4T1 [8] = test: Cytotoxicity against mouse 4T1 cells assessed as reduction in cell viability at 100 nM measured after 24 hrs by RealTime-glo cell viability assay; format: functional, cell-based
[9] = Toxicity in 4T1 cells implanted BALB/c mouse assessed as body weight loss at 80 mg/kg, ip administered daily for 18 days; format: organism-based; conditions: in vivo, 432 h, time 18 day
[10] = Toxicity in mouse B16-F10 cells implanted C57BL/6 mouse at 80 mg/kg, ip administered daily for 28 days; format: organism-based; conditions: in vivo, time 28 day
MDA-MB-231 [11] = test: Cytotoxicity against human MDA-MB-231 cells assessed as reduction in cell viability at 100 nM measured after 24 hrs in presence of 1,25D by RealTime-glo cell viability assay; format: functional, cell-based
[12] = target: T2, Protein deacetylase HDAC6 (Mus musculus) (UniProt Q9Z2V5); test: Inhibition of HDAC6 in mouse B16-F10 cells assessed as induction of tubulin acetylation at 100 nM measured after 6 hrs by Western blot analysis; format: cell-based
T2 sequence (whole entry): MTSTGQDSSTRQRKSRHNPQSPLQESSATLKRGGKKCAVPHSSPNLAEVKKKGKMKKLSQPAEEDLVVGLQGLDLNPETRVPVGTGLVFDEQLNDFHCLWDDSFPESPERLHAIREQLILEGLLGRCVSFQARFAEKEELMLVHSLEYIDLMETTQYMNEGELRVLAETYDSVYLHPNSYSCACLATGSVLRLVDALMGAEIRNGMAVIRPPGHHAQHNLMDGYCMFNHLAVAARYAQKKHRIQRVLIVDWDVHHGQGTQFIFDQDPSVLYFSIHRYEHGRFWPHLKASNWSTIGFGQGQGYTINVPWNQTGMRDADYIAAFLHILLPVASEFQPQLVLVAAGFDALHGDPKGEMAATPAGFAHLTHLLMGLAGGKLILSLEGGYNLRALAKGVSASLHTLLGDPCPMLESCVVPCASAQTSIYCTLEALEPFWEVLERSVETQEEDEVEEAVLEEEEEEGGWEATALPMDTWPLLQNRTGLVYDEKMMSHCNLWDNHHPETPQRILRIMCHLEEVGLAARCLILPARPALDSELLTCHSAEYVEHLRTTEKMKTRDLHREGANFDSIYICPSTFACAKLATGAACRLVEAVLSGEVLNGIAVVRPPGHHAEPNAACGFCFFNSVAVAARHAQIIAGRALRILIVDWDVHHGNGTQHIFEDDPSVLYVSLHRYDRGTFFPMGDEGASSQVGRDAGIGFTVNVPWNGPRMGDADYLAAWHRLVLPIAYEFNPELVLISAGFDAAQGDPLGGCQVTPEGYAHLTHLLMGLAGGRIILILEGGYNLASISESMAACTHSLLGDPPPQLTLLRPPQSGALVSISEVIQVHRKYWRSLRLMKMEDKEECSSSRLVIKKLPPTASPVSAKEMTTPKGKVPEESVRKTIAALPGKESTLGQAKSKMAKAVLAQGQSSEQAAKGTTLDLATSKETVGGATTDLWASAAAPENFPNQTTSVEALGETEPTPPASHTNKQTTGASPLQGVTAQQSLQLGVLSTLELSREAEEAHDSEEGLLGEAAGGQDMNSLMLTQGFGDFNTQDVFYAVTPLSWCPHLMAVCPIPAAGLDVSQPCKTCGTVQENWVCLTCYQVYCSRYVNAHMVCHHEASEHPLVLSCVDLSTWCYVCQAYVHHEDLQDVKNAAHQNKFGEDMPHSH

Mus musculus [13] = test: Immunomodulatory activity in mouse 4T1 cells implanted BALB/c mouse assessed as reduction in total macrophage infiltration into tumors at 80 mg/kg, ip administered daily for 18 days by F4/80 staining based immunofluorescence microscopy; format: functional, organism-based; conditions: time 18.0 day
MDA-MB-231 [14] = test: Cytotoxicity against human MDA-MB-231 cells assessed as reduction in cell viability at 100 nM measured after 24 hrs by RealTime-glo cell viability assay; format: functional, cell-based
[15] = target: T2, Protein deacetylase HDAC6 (Mus musculus); test: Inhibition of HDAC6 in mouse 4T1 cells assessed as induction of tubulin acetylation at 100 nM measured after 6 hrs by Western blot analysis; format: cell-based
4T1 [16] = test: Antitumor activity against mouse 4T1 cells implanted in BALB/c mouse assessed as reduction in tumor burden at 80 mg/kg, ip administered daily for 18 days in presence of 1,25D relative to control; format: functional; set-up: scale not given: the % may be the effect or the level left; conditions: time 18 day
[17] = Toxicity in mouse B16-F10 cells implanted C57BL/6 mouse assessed as effect on body weight at 80 mg/kg, ip administered daily for 28 days in presence of 1,25D; format: organism-based; conditions: in vivo, time 28 day
4T1 [18] = test: Cytotoxicity against mouse 4T1 cells assessed as reduction in cell viability at 100 nM measured after 24 hrs in presence of 1,25D by RealTime-glo cell viability assay; format: functional, cell-based
[19] = Toxicity in mouse B16-F10 cells implanted C57BL/6 mouse at 80 mg/kg, ip administered daily for 28 days in presence of 1,25D; format: organism-based; conditions: in vivo, time 28 day
4T1 [20] = test: Cytotoxicity against mouse 4T1 cells assessed as reduction in cell viability at 100 nM measured after 24 hrs in presence of SAHA by RealTime-glo cell viability assay; format: functional, cell-based
Mus musculus [21] = test: Immunomodulatory activity in mouse 4T1 cells implanted BALB/c mouse assessed as reduction in total macrophage infiltration into tumors at 0.25 ug/kg, ip administered daily for 18 days by F4/80 staining based immunofluorescence microscopy; format: functional, organism-based; conditions: dose 0.25 µg/kg, time 18.0 day
[22] = Toxicity in 4T1 cells implanted BALB/c mouse assessed as stress at 0.25 ug/kg, ip administered daily for 18 days; format: organism-based; conditions: in vivo, 0.00025 mg/kg, 432 h, dose 0.25 µg/kg, time 18 day
Mus musculus [23] = test: Immunomodulatory activity in mouse 4T1 cells implanted BALB/c mouse assessed as reduction in Ccl2 gene expression at 0.25 ug/kg, ip administered daily for 18 days by RT-qPCR analysis; format: functional, organism-based; conditions: dose 0.25 µg/kg, time 18.0 day
[24] = Toxicity in 4T1 cells implanted BALB/c mouse assessed as stress at 0.25 ug/kg, ip administered daily for 18 days in presence of SAHA; format: organism-based; conditions: in vivo, 0.00025 mg/kg, 432 h, dose 0.25 µg/kg, time 18 day
[25] = Toxicity in mouse B16-F10 cells implanted C57BL/6 mouse assessed as effect on body weight at 0.25 ug/kg, ip administered daily for 28 days; format: organism-based; conditions: in vivo, 0.00025 mg/kg, dose 0.25 µg/kg, time 28 day
[26] = Toxicity in mouse B16-F10 cells implanted C57BL/6 mouse at 0.25 ug/kg, ip administered daily for 28 days in presence of SAHA; format: organism-based; conditions: in vivo, 0.00025 mg/kg, dose 0.25 µg/kg, time 28 day
Mus musculus [27] = test: Immunomodulatory activity in mouse 4T1 cells implanted BALB/c mouse assessed as reduction in Cxcl10 gene expression at 0.25 ug/kg, ip administered daily for 18 days by RT-qPCR analysis; format: functional, organism-based; conditions: dose 0.25 µg/kg, time 18.0 day
Mus musculus [28] = test: Immunomodulatory activity in mouse 4T1 cells implanted BALB/c mouse assessed as induction of Il1a gene expression at 0.25 ug/kg, ip administered daily for 18 days by RT-qPCR analysis; format: functional, organism-based; conditions: dose 0.25 µg/kg, time 18.0 day
Mus musculus [29] = test: Immunomodulatory activity in mouse 4T1 cells implanted BALB/c mouse assessed as reduction in Ccl5 gene expression at 0.25 ug/kg, ip administered daily for 18 days by RT-qPCR analysis; format: functional, organism-based; conditions: dose 0.25 µg/kg, time 18.0 day
[30] = Toxicity in 4T1 cells implanted BALB/c mouse assessed as body weight loss at 0.25 ug/kg, ip administered daily for 18 days; format: organism-based; conditions: in vivo, 0.00025 mg/kg, 432 h, dose 0.25 µg/kg, time 18 day
[31] = Toxicity in mouse B16-F10 cells implanted C57BL/6 mouse at 0.25 ug/kg, ip administered daily for 28 days; format: organism-based; conditions: in vivo, 0.00025 mg/kg, dose 0.25 µg/kg, time 28 day
MDA-MB-231 [32] = test: Cytotoxicity against human MDA-MB-231 cells assessed as reduction in cell viability at 100 nM measured after 24 hrs in presence of SAHA by RealTime-glo cell viability assay; format: functional, cell-based
4T1 [33] = test: Antitumor activity against mouse 4T1 cells implanted in BALB/c mouse assessed as reduction in tumor burden at 0.25 ug/kg, ip administered daily for 18 days in presence of SAHA relative to control; format: functional; set-up: scale not given: the % may be the effect or the level left; conditions: dose 0.25 µg/kg, time 18 day
B16-F10 [34] = test: Antitumor activity against mouse B16-F10 cells implanted in C57BL/6 mouse assessed as reduction in tumor burden at 0.25 ug/kg, ip administered every second day for 18 days in presence of SAHA; format: functional, organism-based; conditions: dose 0.25 µg/kg, time 18.0 day
B16-F10 [35] = test: Antitumor activity against mouse B16-F10 cells implanted in C57BL/6 mouse assessed as reduction in tumor burden at 0.25 ug/kg, ip administered every second day for 18 days; format: functional, organism-based; conditions: dose 0.25 µg/kg, time 18.0 day
Mus musculus [36] = test: Immunomodulatory activity in mouse 4T1 cells implanted BALB/c mouse assessed as reduction in Ccl20 gene expression at 0.25 ug/kg, ip administered daily for 18 days by RT-qPCR analysis; format: functional, organism-based; conditions: dose 0.25 µg/kg, time 18.0 day
[37] = Toxicity in 4T1 cells implanted BALB/c mouse assessed as body weight loss at 0.25 ug/kg, ip administered daily for 18 days in presence of SAHA; format: organism-based; conditions: in vivo, 0.00025 mg/kg, 432 h, dose 0.25 µg/kg, time 18 day
[38] = Toxicity in mouse B16-F10 cells implanted C57BL/6 mouse assessed as effect on body weight at 0.25 ug/kg, ip administered daily for 28 days in presence of SAHA; format: organism-based; conditions: in vivo, 0.00025 mg/kg, dose 0.25 µg/kg, time 28 day

O=C(CCCCCCC(=O)Nc1ccccc1)NO [VORINOSTAT]
Activity [1]: Active
Activity [2]: Non-toxic
Activity [3]: Non-toxic
Activity [4]: Non-toxic
Activity (B16-F10 [5]): Active
Activity (B16-F10 [6]): Active
Activity [7]: Non-toxic
Activity (4T1 [8]): Active
Activity [9]: Non-toxic
Activity [10]: Non-toxic
Activity (MDA-MB-231 [11]): Active
inhibition [12]: Active
Activity (Mus musculus [13]): Active; No Significant Effect Observed
Activity (MDA-MB-231 [14]): Active
inhibition [15]: Active
Activity (4T1 [16]): ~20%
Activity [17]: Non-toxic
Activity (4T1 [18]): Active
Activity [19]: Non-toxic

C=C1/C(=C\C=C2/CCC[C@]3(C)[C@@H]([C@H](C)CCCC(C)(C)O)CC[C@@H]23)C[C@@H](O)C[C@@H]1O [CALCITRIOL]
Activity (4T1 [20]): Active
Activity (Mus musculus [21]): Active; Significantly Reduced Macrophage Infiltration Into Tumor
Activity [22]: Non-toxic
Activity (4T1 [8]): Active
Activity (Mus musculus [23]): Active
Activity [24]: Non-toxic
Activity [25]: Non-toxic
Activity [26]: Non-toxic
Activity (Mus musculus [27]): Active
Activity (Mus musculus [28]): Active
Activity (MDA-MB-231 [14]): Active
Activity (Mus musculus [29]): Active
Activity [30]: Non-toxic
Activity [31]: Non-toxic
Activity (MDA-MB-231 [32]): Active
Activity (4T1 [33]): ~20%
Activity (B16-F10 [34]): Active
Activity (B16-F10 [35]): Active
Activity (Mus musculus [36]): Active
Activity [37]: Non-toxic
Activity [38]: Non-toxic
